Experimental data from US8501166B2, “Pyrimidinyl indole compounds” (Hutchison Medipharma Limited, priority 2010, dated 2013).
Where a name gives a salt, the structure may show the parent alone. Read-outs that look alike come from different tables or passages of the source.

How the values were obtained:
[1] = test system: LPS-induced plasma TNFα production; test: LPS-induced cytokine production in rat plasma; type: in vivo, Lewis rats; conditions: oral 1 h before LPS 0.4 mg/kg i.p.
Method: (§1) Alternately, the compound is screened for its ability to inhibit the LPS-induced cytokine production in rat plasma according to the method reported in the literature (Ziegelbauer K, Gantner F, Lukacs N W, et al. Br J. Pharmacol. 2005,145(2):178-92). Briefly, Lewis rats (male, body weight 140 g-180 g) are used in the experiments. Animals (8/group) are given 1 to 100 mg/kg of the testing compound (suspension in 35% solutol & 60% PEG400 & 5% PG) or vehicle by oral gavage at 1 h prior to intraperitoneal administration of LPS 0.4 mg/kg. Ninety minutes after the intraperitoneal administration of LPS, blood is collected in heparin anticoagulated tubes to measure TNFα using R&D System ELISA Kit based on the general Kit protocols. The plasma sample is diluted 100 fold with the dilution buffer and 50 μL of diluted sample is used in each measurement. The plate is read on a SPECTRAMAX® M2e Plus Plate Reader and TNFα levels are analyzed based on the standard curve. The drug levels in plasma are measured with LC-MS-MS. […] Alternately, the compound is screened for its ability to inhibit the LPS-induced cytokine production in mouse plasma. Balb/c mice (female, body weight 18-20 g) are used in the experiments. […] The plate is read on a SPECTRMAX® M2e Plus Plate Reader and the data is analyzed using a standard curve.

[2] = test system: collagen induced arthritis; test: Rat collagen II induced arthritis (CIA) model; type: in vivo, Wistar Rats; conditions: 30 mg/kg oral bid, day 1 to day 21
Method: To confirm the results obtained in mouse CIA model, the compound is also tested in a CIA model in rat essentially as described in a method reported in the literature (Rosloniec E F, Cremer M, Kang A, Myers L K. Current Protocols in Immunology. 1996, 15.5.1-15.5.24). Briefly, Wistar Rats are immunized intradermally with 200 μg bovine collagen II emulsified in Freund's […] on day 0 and with 100 μg collagen II emulsified in IFA (incomplete Freund's adjuvant) on day 7. The hind paw volume is measured before and after the immunization. The disease development of four paws is quantified with arthritis scores. Rats in normal and model groups are treated with vehicle or drug (treated group). Rats in treated group are orally administered with the testing compound at doses of 3, 10, 30 mg/kg (bid), from day 1 to day 21 after the first immunization. In the LEF group, as a positive control, rats are orally administered with LEF at a dose of 10 mg/kg, q.d.

[3] = test system: LPS-induced plasma IL-1β production; test: LPS-induced plasma cytokine production in mouse, IL-1β; type: in vivo, Balb/c mice; conditions: even at the dose of 100 mg/kg
Method: as §1

Skov3-luc cells = test: Cell viability test, combination study, Skov3-luc; type: cell-based; conditions: Homo sapiens, 72 h, read-out: Ave. Inhibition rate
Method: To evaluate biological activity of a compound in vitro, the cell viability test is applied, in which, IKKβ receptor plays an important role in cell survival and proliferation. Once the IKKβ pathway is blocked by inhibitors, a cell can go through apoptosis or death. The cell viability test provides information on cell survival after treatment with IKK inhibitors.
BxPC-3 cells (ATCC #CRL-1687; human pancreatic cancer cell line) are grown in Roswell Park Memorial Institute (RPMI) 1640 media (Gibco #A10491-01) supplemented with 10% fetal bovine serum (FBS) (Gibco #10099-141). Skov3-luc cells (ATCC, human ovarian carcinoma cell line) are grown in McCoy's 5a medium (Gibco#16600) supplemented with 10% FBS (Gibco#10099-141). For compound testing, BxPc-3 and Skov3-Luc cells are seeded at 2000 and 5000 cells/well respectively in 100 μL of corresponding media specified above for each cell line in 96-well plates 20 h prior to treatment. Cells are treated with a test compound at eight different concentrations in the presence of 0.5% DMSO for 72 h. Cell death in each well is determined by the addition of 20 μL of the One Solution Reagent (CELLTITER 96® AQueous One Solution Cell Proliferation Assay, Promega #G3580). After 2-4 h of incubation at 37° C., optical densities at 492 nm are measured with a microplate reader Inhibition of cell viability is determined by comparison to the control cells treated in the absence of a test compound.
For the combination study of the compound with other antitumor agents, BxPc-3 and Skov3-Luc cells are seeded at 2000 and 5000 cells/well respectively in 100 μL corresponding media specified above for each cell line in 96-well plates 20 h prior to the treatment. […] Cell death in each well is determined by the addition of 20 μL of the One Solution Reagent (CELLTITER 96® AQueous One Solution Cell Proliferation Assay, Promega #G3580). After 2-4 h of incubation at 37° C., optical densities at 492 nm are measured with a microplate reader Inhibition of cell viability is determined by comparison to the control cells treated in the absence of a test compound. […]

EC50 ([1]; read-out: EC50, plasma TNFα production (drug level in plasma)) [µg/mL] | SMILES | ED50 [1] [mg/kg] | arthritis scores and hind paws volume [2] | effect on IL-1β production [3] | inhibition at 12.5 µM (Skov3-luc cells; Example 1 12.5 μM alone) [%] | inhibition at 12.5 µM (Skov3-luc cells; Vincristine 0.25 μM + Example 1 12.5 μM) [%]
4.04 ± 1.28 | Cl.O=C(NC1CC1)c1cccc2[nH]c(-c3nc(N[C@@H]4CCC[C@H]4O)ncc3Cl)cc12 [Example 2, 2-{5-Chloro-2-[(1R,2R)-2-hydroxycyclopentylamino]pyrimidin-4-yl}-N-cyclopropyl-1H-indole-4-carboxamide hydrochloride] | 19.8 ± 10.9 | significantly attenuates collagen induced arthritis | no effect was observed |  | 
 | O=C(NC1CC1)c1cccc2[nH]c(-c3nc(N[C@@H]4CCC[C@@H]4O)ncc3Cl)cc12 [Example 1, 2-{5-Chloro-2-[(1R,2S)-2-hydroxycyclopentylamino]pyrimidin-4-yl}-N-cyclopropyl-1H-indole-4-carboxamide hydrochloride] |  |  |  | 21.8 | 82.3
